Literature values, collected in patent US11266683B2, “Antimicrobial and cleansing composition consisting of a polymeric biguanide and EDTA” (priority 2016, dated 2022).
Where two headings read alike, the source gives them in different places.

## [H]/N=C(\N/C(=N/[H])NCCCCCCNC(=N)NC(=N)Nc1ccc(Cl)cc1)Nc1ccc(Cl)cc1 [chlorhexidine]
fibroblasts; at higher concentration
  effect on fibroblasts: causes necrosis
fibroblasts; at lower concentration
  effect on fibroblasts: induces apoptosis

## polyhexamethylene biguanide [PHMB]
S. aureus
  risk of the bacterium developing resistance: very low
